The text below walks through data of patent publication US9376454B2, “Beta-lactamase inhibitors” (priority 2013, dated 2016).

pIC50: −log10 of the molar value. Where two headings read alike, the source gives them in different places. A value given as a limit tells only on which side of the number the result lay.

For test [1], the system named is E. coli ESBL4 expressing CTX-M-15. Description: Broth microdilution MIC assay, E. coli CTX-M-15. Type of test: cell-based. To be noted: E. coli expressing Class A ESBL CTX-M-15. On the technique in general: In broth dilution the organism is exposed to a series of concentrations in liquid medium.
The next test addresses T1, SHV-5 β-lactamase (Klebsiella pneumoniae, UniProt P0A3M1).
T1 construct: made in house; host or cells: E. coli BL21(DE3)
The test is described as follows: β-Lactamase inhibition enzyme assay, SHV-5. The format is biochemical. The procedure, abridged:
(§1)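 Native untagged β-lactamases from E. coli BL21(DE3) were purified and preincubated with inhibitor 15 min at 37° C. Hydrolysis was then followed as initial rates: 100 μM nitrocefin at 486 nm for p99 AmpC and OXA-1, imipenem at 300 nm for KPC-2, cefotaxime at 260 nm for SHV-5. IC50 = 50% reduction versus no-inhibitor controls.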

The target of another test is T2, KPC-2 β-lactamase (Klebsiella pneumoniae, UniProt Q9F663).
T2 construct: made in house; host or cells: E. coli BL21(DE3)
T2 sequence (Q9F663 25-293, looked up): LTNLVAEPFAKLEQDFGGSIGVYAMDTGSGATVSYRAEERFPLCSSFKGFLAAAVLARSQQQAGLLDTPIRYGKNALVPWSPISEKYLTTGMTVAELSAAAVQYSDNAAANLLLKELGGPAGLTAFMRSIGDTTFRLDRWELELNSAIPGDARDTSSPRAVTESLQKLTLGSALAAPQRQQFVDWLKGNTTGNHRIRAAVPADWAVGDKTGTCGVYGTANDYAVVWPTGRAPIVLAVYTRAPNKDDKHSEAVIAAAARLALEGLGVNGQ
The test is described as follows: β-Lactamase inhibition enzyme assay, KPC-2. Type of test: biochemical. Summed up: as §1

Test [2] concerns S. aureus MSSA-7 producing penicillinase PC-1. The test is described as follows: Broth microdilution MIC assay, S. aureus PC-1. The format is cell-based.
The target in the next test is T3, p99 AmpC β-lactamase (Enterobacter cloacae, UniProt P05364).
T3 construct: made in house; host or cells: E. coli BL21(DE3)
T3 sequence (P05364 21-381): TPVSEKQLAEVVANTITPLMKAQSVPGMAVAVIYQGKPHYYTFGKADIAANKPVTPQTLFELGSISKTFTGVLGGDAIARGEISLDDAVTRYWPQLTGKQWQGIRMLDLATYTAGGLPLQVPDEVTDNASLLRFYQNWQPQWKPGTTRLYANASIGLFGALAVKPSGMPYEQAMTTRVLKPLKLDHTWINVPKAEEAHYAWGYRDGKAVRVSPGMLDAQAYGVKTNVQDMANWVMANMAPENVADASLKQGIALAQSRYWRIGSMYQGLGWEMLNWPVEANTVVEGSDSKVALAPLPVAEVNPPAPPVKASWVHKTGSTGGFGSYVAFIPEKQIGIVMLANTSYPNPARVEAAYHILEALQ
The test is described as follows: β-Lactamase inhibition enzyme assay, p99 AmpC. Type of test: biochemical. Summed up:
as §1

The target in the next test is T4, OXA-1 β-lactamase (Escherichia coli, UniProt P13661).
T4 construct: made in house; host or cells: E. coli BL21(DE3)
T4 sequence (P13661 26-276): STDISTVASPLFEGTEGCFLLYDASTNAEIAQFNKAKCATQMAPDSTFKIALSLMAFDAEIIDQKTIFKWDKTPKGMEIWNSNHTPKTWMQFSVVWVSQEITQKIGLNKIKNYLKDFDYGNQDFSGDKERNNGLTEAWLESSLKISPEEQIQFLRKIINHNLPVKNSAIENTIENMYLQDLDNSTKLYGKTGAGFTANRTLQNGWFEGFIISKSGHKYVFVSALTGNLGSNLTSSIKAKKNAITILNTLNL
The test is described as follows: β-Lactamase inhibition enzyme assay, OXA-1. Type of test: biochemical. The procedure, abridged:
as §1

The target of test [3] is T5, VIM-2 metallo β-lactamase (Pseudomonas aeruginosa, UniProt Q9K2N0).
T5 construct: made in house; host or cells: E. coli BL21(DE3)
Description: β-Lactamase inhibition enzyme assay, VIM-2. The format is biochemical. The note with it: Nitrocefin 100 μM as substrate, 486 nm; 15 min at 37° C. with enzyme, PBS pH 7.4; read-out: Class B VIM-2 IC50. Summed up: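 Purified untagged VIM-2, expressed in E. coli BL21(DE3), preincubated with inhibitor 15 min at 37 °C. Nitrocefin added at 100 μM final, and absorbance at 486 nm monitored for 10 min. IC50 taken as inhibitor concentration halving initial hydrolysis rate relative to uninhibited controls.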

For test [4], the system named is E. cloacae 144200 expressing p99 AmpC. The test is described as follows: Broth microdilution MIC assay, E. cloacae P99. Type of test: cell-based. To be noted: fixed ceftazidime 4 μg/mL; CAMHB, 16-20 hours at 37° C.
The subject of test [5] is P. aeruginosa Ps296 expressing VIM-2. The test is described as follows: Broth microdilution MIC assay, P. aeruginosa VIM-2. Type of test: cell-based. To be noted: P. aeruginosa expressing carbapenemase VIM-2.
The test system of test [6] is K. pneumoniae A-1797 expressing KPC-2 and VIM-4. The test is described as follows: Broth microdilution MIC assay, K. pneumoniae KPC-2 and VIM-4. Type of test: cell-based. To be noted: K. pneumoniae expressing KPC-2 and VIM-4.
The mark [7] stands for this setting: imipenem as substrate, 300 nm, 15 min at 37° C. with enzyme, PBS pH 7.4, read-out: Class A KPC-2 IC50.
Where [8] appears, read: Nitrocefin 100 μM as substrate, 486 nm, 15 min at 37° C. with enzyme, PBS pH 7.4, read-out: Class D OXA-1 IC50.

T1 sequence (P0A3M1 22-286): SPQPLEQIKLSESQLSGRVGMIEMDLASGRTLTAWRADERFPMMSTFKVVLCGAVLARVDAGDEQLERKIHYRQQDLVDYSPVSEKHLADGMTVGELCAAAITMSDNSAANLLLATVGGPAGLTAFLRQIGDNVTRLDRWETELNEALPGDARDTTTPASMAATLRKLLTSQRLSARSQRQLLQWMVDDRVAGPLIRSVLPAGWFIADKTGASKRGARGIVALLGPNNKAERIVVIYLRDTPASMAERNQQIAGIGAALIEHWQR

`CC(C)(O/N=C(\C(=O)N[C@@H]1C(=O)N2C(C(=O)[O-])=C(C[n+]3ccccc3)CS[C@H]12)c1csc(N)n1)C(=O)O` [Ceftazidime]: the “MIC alone of partner antibiotic” value in [1] is greater than 128 µg/mL.
As usually defined, the pIC50 is −log10 of the IC50, conventionally taken in molar units. `O=C(O)c1cccc2c1OB(O)[C@@H](NC(=O)C1(c3ccccc3)CCNCC1)C2` [Example 3, (R)-2-hydroxy-3-(4-phenylpiperidine-4-carboxamido)-3,4-dihydro-2H-benzo[e][1,2]oxaborinine-8-carboxylic acid]: the pIC50 against SHV-5 β-lactamase is 4.00 to 5.00; on KPC-2 β-lactamase it was greater than 7.00; on p99 AmpC β-lactamase it was greater than 7.00; against OXA-1 β-lactamase, 6.00 to 7.00; in test [3], 5.00 to 6.00. In test [2] (fixed piperacillin 4 μg/mL, CAMHB, 16-20 hours at 37° C.), the “MIC of Exemplary Compounds in presence of fixed β-lactams: Fixed Pip, S. aureus MSSA-7 PC-1” value is listed as “A (A represents an MIC of the fixed β-lactam antibiotic in the presence of >32 μg/mL of a β-lactamase inhibitor of exemplary compounds)”.
As to `NCc1cc(CN)cc(C(=O)N[C@H]2Cc3cccc(C(=O)O)c3OB2O)c1` [Example 44, (R)-3-(3,5-bis(aminomethyl)benzamido)-2-hydroxy-3,4-dihydro-2H-benzo[e][1,2]oxaborinine-8-carboxylic acid], the pIC50 at SHV-5 β-lactamase is 5.00 to 6.00; at KPC-2 β-lactamase (setting [7]), 5.00 to 6.00; at p99 AmpC β-lactamase it was 6.00 to 7.00; on OXA-1 β-lactamase (setting [8]), 5.00 to 6.00; in test [3], 5.00 to 6.00. Further, the “MIC of Exemplary Compounds in presence of fixed β-lactams: Fixed CAZ, E. cl. 144200 p99 AmpC” value in [4] is “C (C represents the MIC in the presence of ≦4 μg/mL of a β-lactamase inhibitor of exemplary compounds)”.
Turning to `NCCNc1ccc(CC(=O)N[C@H]2Cc3cccc(C(=O)O)c3OB2O)cc1` [Example 57, (R)-3-(2-(4-(2-aminoethylamino)phenyl)acetamido)-2-hydroxy-3,4-dihydro-2H-benzo[e][1,2]oxaborinine-8-carboxylic acid], the pIC50 against SHV-5 β-lactamase is greater than 7.00; at KPC-2 β-lactamase (setting [7]), greater than 7.00; on p99 AmpC β-lactamase, greater than 7.00; at OXA-1 β-lactamase (setting [8]), greater than 7.00; in test [3], 5.00 to 6.00.
`NCCOc1ccc(CC(=O)N[C@H]2Cc3cccc(C(=O)O)c3OB2O)cc1OCCN` [Example 58, (R)-3-(2-(3,4-bis(2-aminoethoxy)phenyl)acetamido)-2-hydroxy-3,4-dihydro-2H-benzo[e][1,2]oxaborinine-8-carboxylic acid]: the pIC50 against SHV-5 β-lactamase is greater than 7.00; at KPC-2 β-lactamase (setting [7]) it was greater than 7.00; against p99 AmpC β-lactamase it was greater than 7.00; at OXA-1 β-lactamase (setting [8]), greater than 7.00; in test [3], 6.00 to 7.00.
On to `NCCOc1ccc(CC(=O)N[C@H]2Cc3cccc(C(=O)O)c3OB2O)cc1O` [Example 59, (R)-3-(2-(4-(2-aminoethoxy)-3-hydroxyphenyl)acetamido)-2-hydroxy-3,4-dihydro-2H-benzo[e][1,2]oxaborinine-8-carboxylic acid], for which the pIC50 on SHV-5 β-lactamase is greater than 7.00; at KPC-2 β-lactamase (setting [7]), greater than 7.00; against p99 AmpC β-lactamase it was greater than 7.00; on OXA-1 β-lactamase (setting [8]), greater than 7.00; in test [3] it was 6.00 to 7.00.
Take `NCCNc1ccc(CC(=O)N[C@H]2Cc3cccc(C(=O)O)c3OB2O)cn1` [Example 60, (R)-3-(2-(6-(2-aminoethylamino)pyridin-3-yl)acetamido)-2-hydroxy-3,4-dihydro-2H-benzo[e][1,2]oxaborinine-8-carboxylic acid]: the pIC50 was greater than 7.00 against SHV-5 β-lactamase; greater than 7.00 on KPC-2 β-lactamase (setting [7]); greater than 7.00 on p99 AmpC β-lactamase; greater than 7.00 at OXA-1 β-lactamase (setting [8]); 6.00 to 7.00 in test [3].
On to `NCCNc1ccc(CC(=O)N[C@H]2Cc3cccc(C(=O)O)c3OB2O)c[n+]1[O-]` [Example 61, (R)-2-(2-aminoethylamino)-5-(2-(8-carboxy-2-hydroxy-3,4-dihydro-2H-benzo[e][1,2]oxaborinin-3-ylamino)-2-oxoethyl)pyridine 1-oxide], for which the pIC50 against SHV-5 β-lactamase was greater than 7.00; on KPC-2 β-lactamase (setting [7]), greater than 7.00; on p99 AmpC β-lactamase, greater than 7.00; on OXA-1 β-lactamase (setting [8]), greater than 7.00; in [3], 6.00 to 7.00.
Regarding `NCc1cc(C(=O)N[C@H]2Cc3cccc(C(=O)O)c3OB2O)cnc1CN` [Example 62, (R)-3-(5,6-bis(aminomethyl)nicotinamido)-2-hydroxy-3,4-dihydro-2H-benzo[e][1,2]oxaborinine-8-carboxylic acid], the pIC50 against SHV-5 β-lactamase was greater than 7.00; on KPC-2 β-lactamase (setting [7]) it was greater than 7.00; against p99 AmpC β-lactamase, greater than 7.00; at OXA-1 β-lactamase (setting [8]) it was greater than 7.00; in [3], 6.00 to 7.00.
On to `NCc1cnc(C(=O)N[C@H]2Cc3cccc(C(=O)O)c3OB2O)cc1CN` [Example 63], for which the pIC50 on SHV-5 β-lactamase is 6.00 to 7.00; at KPC-2 β-lactamase (setting [7]), greater than 7.00; on p99 AmpC β-lactamase, greater than 7.00; on OXA-1 β-lactamase (setting [8]) it was greater than 7.00; in test [3] it was greater than 7.00.
As for `C[C@@H](O)[C@H]1C(=O)N2C(C(=O)O)=C(S[C@@H]3CN[C@H](C(=O)N(C)C)C3)[C@H](C)[C@H]12` [Meropenem], the “MIC alone of partner antibiotic” value in test [5] stood at 16 µg/mL; in [6], 64 µg/mL.
As for `CCN1CCN(C(=O)N[C@@H](C(=O)N[C@@H]2C(=O)N3[C@@H]2SC(C)(C)[C@@H]3C(=O)O)c2ccccc2)C(=O)C1=O` [Piperacillin, reference compound], the “MIC alone of partner antibiotic” value in [2] (antibiotic alone, S. aureus producing penicillinase PC-1) was 64 µg/mL.
